pIC50: −log10 of the molar value.

The inhibition is the percentage by which the read-out fell short of the control. A low value points to a weak effect. What is called pIC50 is the IC50 on a negative log10 scale, so that one unit is a factor of ten. Lower therefore signals a high IC50.

The target in one assay is EGFR (UniProt P00533). As to conditions: concentration not given here.
Another assay concerns the target CDK2 (UniProt P24941). The assay is described as follows: Enzyme Assay.

Chain of EGFR (P00533 whole entry, looked up): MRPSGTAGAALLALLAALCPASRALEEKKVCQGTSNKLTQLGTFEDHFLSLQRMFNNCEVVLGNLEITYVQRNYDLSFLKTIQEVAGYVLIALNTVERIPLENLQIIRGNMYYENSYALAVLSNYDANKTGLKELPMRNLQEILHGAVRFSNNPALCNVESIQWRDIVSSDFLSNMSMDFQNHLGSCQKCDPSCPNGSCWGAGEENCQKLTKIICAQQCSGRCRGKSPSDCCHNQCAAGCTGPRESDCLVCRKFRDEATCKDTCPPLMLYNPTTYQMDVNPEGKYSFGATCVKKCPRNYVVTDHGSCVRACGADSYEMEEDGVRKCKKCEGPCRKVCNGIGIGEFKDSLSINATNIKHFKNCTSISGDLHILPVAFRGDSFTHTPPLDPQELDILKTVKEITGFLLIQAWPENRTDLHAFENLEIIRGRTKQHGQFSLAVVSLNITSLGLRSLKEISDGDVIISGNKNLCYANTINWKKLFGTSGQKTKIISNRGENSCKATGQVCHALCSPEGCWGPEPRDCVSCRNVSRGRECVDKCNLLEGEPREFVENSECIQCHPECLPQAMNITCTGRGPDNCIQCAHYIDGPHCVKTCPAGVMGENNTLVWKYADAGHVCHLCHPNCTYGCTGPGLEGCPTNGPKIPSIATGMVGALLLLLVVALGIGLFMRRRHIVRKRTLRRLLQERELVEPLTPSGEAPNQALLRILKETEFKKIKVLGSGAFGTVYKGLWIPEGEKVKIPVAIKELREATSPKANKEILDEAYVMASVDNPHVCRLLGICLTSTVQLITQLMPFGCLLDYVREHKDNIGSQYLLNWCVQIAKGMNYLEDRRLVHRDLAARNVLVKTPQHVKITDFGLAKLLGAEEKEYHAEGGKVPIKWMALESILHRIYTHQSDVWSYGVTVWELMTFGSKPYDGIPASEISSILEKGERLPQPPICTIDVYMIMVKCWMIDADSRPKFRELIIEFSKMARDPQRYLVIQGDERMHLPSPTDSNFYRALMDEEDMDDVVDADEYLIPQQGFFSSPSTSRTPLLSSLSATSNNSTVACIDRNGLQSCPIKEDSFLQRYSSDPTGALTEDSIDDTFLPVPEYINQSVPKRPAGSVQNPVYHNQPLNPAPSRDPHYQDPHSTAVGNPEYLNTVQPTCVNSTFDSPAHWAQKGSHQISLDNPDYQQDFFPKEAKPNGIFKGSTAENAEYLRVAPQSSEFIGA

In the case of `CC(C)Oc1ccccc1-c1cc(Nc2ccc(NC(=O)c3ccc(N)cc3)cc2)ncn1`, the inhibition against EGFR was 50 to 80%. For the same molecule, at CDK2, the pIC50 was 6.00 to 9.00.

As to `CN[C@H](C(=O)Nc1ccc(Nc2cc(-c3ccccc3OC)ncn2)cc1)c1ccccc1`, at EGFR, the inhibition was > 80%. On CDK2, this molecule gave a pIC50 of 5.00 to 6.00.

At EGFR, `COc1ccccc1-c1cc(Nc2ccc(NC(=O)c3ccc(N4CCN(C)CC4)cc3)cc2)ncn1` displayed an inhibition of 50 to 80%. At CDK2, this molecule had a pIC50 of 5.00 to 6.00.

`NC(=O)c1ccc(Nc2cc(-c3ccccc3OCc3ccccc3)ncn2)cc1` returned an inhibition at EGFR of 50 to 80%. Besides, the pIC50 on CDK2 was 6.00 to 9.00.

`COc1ccccc1-c1cc(Nc2ccc(NC(=O)c3cn(C)cn3)cc2)ncn1` showed an inhibition on EGFR of 50 to 80%. On CDK2, this molecule gave a pIC50 of 5.00 to 6.00.

For the molecule `COc1ccccc1-c1cc(Nc2ccc(NC(=O)C3(N)CCCC3)cc2)ncn1`, the inhibition on EGFR was > 80%. Also, the pIC50 on CDK2 was 5.00 to 6.00.

Consider `COc1ccccc1-c1cc(Nc2ccc(NC(=O)CCN)cc2)ncn1`, for which, on EGFR, the inhibition was > 80%. Besides, the negative logarithm of the IC50 (pIC50) against CDK2 is 5.00 to 6.00.

On to `COc1ccccc1-c1cc(Nc2ccc(NC(=O)C3CCCN(C)C3)cc2)ncn1` (centres undefined), for which the inhibition against EGFR is > 80%. Moreover, the negative-log IC50 (pIC50) against CDK2 is 5.00 to 6.00.

Take `COc1ccccc1-c1cc(Nc2ccc(NC(=O)[C@H]3CCCCN3)cc2)ncn1`: the inhibition against EGFR was > 80%. The molecule also had a pIC50 against CDK2 of 5.00 to 6.00.

`COc1ccccc1-c1cc(Nc2ccc(NC(=O)NC3CCCCC3)cc2)ncn1`: at EGFR, the inhibition lay within 30 to 50%. Also, the pIC50 on CDK2 is 5.00 to 6.00.

In turn, `COc1ccccc1-c1cc(Nc2ccc(C(=O)N[C@@H]3CCCC[C@H]3N)cc2)ncn1.COc1ccccc1-c1cc(Nc2ccc(C(=O)N[C@H]3CCCC[C@@H]3N)cc2)ncn1` showed an inhibition at EGFR of 50 to 80%. The same molecule showed a pIC50 against CDK2 of 5.00 to 6.00.

In the case of `COc1ccccc1-c1cc(Nc2ccc(NC(=O)Cc3ccccc3)cc2)ncn1`, the inhibition on EGFR fell in the range of 30 to 50%. At CDK2, this molecule showed a pIC50 of 5.00 to 6.00.

As for `CNC(C)(C)C(=O)Nc1ccc(Nc2cc(-c3ccccc3OC)ncn2)cc1`, at EGFR, the inhibition was > 80%. Also, on CDK2, the negative logarithm of the IC50 (pIC50) is 5.00 to 6.00.

At EGFR, `COc1ccccc1-c1cc(Nc2ccc(NC(=O)[C@@H](N)c3ccccc3)cc2)ncn1` registered an inhibition of 50 to 80%. This molecule also showed a pIC50 on CDK2 of 5.00 to 6.00.

Consider `COc1ccccc1-c1cc(Nc2ccc(NC(=O)CC3CCCCN3)cc2)ncn1` (centres undefined), for which the inhibition against EGFR is > 80%. On CDK2, this molecule gave a pIC50 of 5.00 to 6.00.

In turn, `Cc1ccc(Nc2cc(-c3cccc(N)c3)ncn2)cc1NS(=O)(=O)c1ccccc1` came in with an inhibition on EGFR of 50 to 80%. Further, the negative logarithm of the IC50 (pIC50) against CDK2 was 5.00 to 6.00.

`Nc1ccc(C(=O)Nc2ccc(Nc3cc(-c4ccccc4OCc4ccccc4)ncn3)cc2)cc1` yielded an inhibition against EGFR of 30 to 50%. The molecule further had a pIC50 against CDK2 of 5.00 to 6.00.

In the case of `COc1ccccc1-c1cc(Nc2ccc(NC(=O)[C@@H]3Cc4ccccc4CN3)cc2)ncn1`, the inhibition against EGFR was > 80%. For the same molecule, the pIC50 on CDK2 is 5.00 to 6.00.

For `COc1ccccc1-c1cc(Nc2ccc(N)cc2)ncn1`, the inhibition on EGFR is > 80%. For the same molecule, at CDK2, the pIC50 was 6.00 to 9.00.

Regarding `Cc1ccc(Nc2cc(-c3cccc(N)c3)ncn2)cc1NS(C)(=O)=O`, the inhibition on EGFR was > 80%. This molecule gave a pIC50 against CDK2 of 6.00 to 9.00.

In the case of `COc1ccccc1-c1cc(Nc2ccc(NC(=O)[C@H]3CCCN3)cc2)ncn1`, the inhibition on EGFR was > 80%. The molecule further gave a pIC50 at CDK2 of 5.00 to 6.00.

As for `NCCCOc1ccccc1-c1cc(Nc2ccc(NC(=O)c3ccc(N)cc3)cc2)ncn1`, the inhibition on EGFR was > 80%. On CDK2, the pIC50 was 5.00 to 6.00.

Values taken from the Kinase Knowledgebase extract (Sharma et al. 2016).
